Measured values: patent US4542025A, “Injectable, long-acting microparticle formulation for the delivery of anti-inflammatory agents” (priority 1984, dated 1985)

Test: In vitro release of methylprednisolone acetate into 50 wt % aqueous ethanol
Type: physicochemical
Conditions: unencapsulated, 37° C., 120 cycles/min
Method: The in vitro release of methylprednisolone acetate from microparticles into a receiving fluid comprising 50 wt % of aqueous ethanol maintained at 37° C. was measured.
Triplicate samples of 20 mg of microparticles were weighed and each sample was placed in an 8-oz bottle containing 150 mL of 50 wt % aqueous ethanol. […] Next, the bottles were sealed with a thin sheet of Teflon and a screw cap to prevent evaporation. The bottles were then placed in an Eberbach shaker bath oscillating at 120 cycles/min and maintained at 37° C. The amount of drug released from the microparticles as a function of time was measured by determining the absorbance of the aqueous ethanol receiving fluid at 247 nm and by using the following equation based on Beer's Law.
wherein C is the concentration of methylprednisolone acetate in g/ml.

- time to complete dissolution: 30 min
SMILES: CC(=O)OCC(=O)[C@@]1(O)CC[C@H]2[C@@H]3C[C@H](C)C4=CC(=O)C=C[C@]4(C)[C@H]3[C@@H](O)C[C@@]21C
